Results published in patent US9919978B2, “Selenium-doped nano silica sol used for producing selenium-enriched rice and capable of suppressing absorption and accumulation of heavy metals in paddy rice and preparation method therefor” (GUANGDONG INSTITUTE OF ECO-ENV[…] & TECHNOLOGY, priority 2013, dated 2018).

System: rice
Test: Pot experiment: foliar application on rice grown in arsenic-contaminated soil (Example 4)
Format: in vivo, rice (variety Youyou 128)
Source text: The pot experiment for showing the effects of relieving the heavy metal poison in rice by foliar application of the selenium-doped nano-silica sol.
The soils to be tested were collected from an arsenic-contaminated rice field, in Yanhong Town, Chenghai District, Shantou City, Guangdong Province, China, the surface layer of the cultivated soils (0-10 cm) in the rice field was taken as the soil, air-dried and sieved, 10 kg of the soil were weighed and filled into barrels, wherein the basic physical and chemical properties of the soil were as follows: pH 6.12, organic matter 2.73%, total nitrogen 1.5 g/kg, total phosphorus 1.02 g/kg, total potassium 11.3 g/kg, CEC 8.75 cmol/kg, total arsenic 93.6 mg/kg, and total selenium 0.879 mg/kg.
Cultivation and treatment of rice: the rice variety was Youyou 128, the rice seed surface was disinfected for 15 minutes with 5% sodium hypochlorite solution, after washing with tap water, germination and seedling were carried out, then the uniform young seedlings were selected and transplanted. […] Each of the treatments was repeated four times, and the rices were harvested after they were matured. The dry weight of rice per pot was weighed, and the arsenic and selenium contents in rice were analyzed.

O=[Se]([O-])[O-].[Na+].[Na+] [1% Se, sodium selenite]
selenium content in rice relative to that after the selenium-doped nano-silica sol with 1% selenium (foliar application): 66%
dry weight of rice grain reduced as compared with the control (foliar application at tillering stage, diluted 100-fold, arsenic-contaminated soil): 13.1%
selenium content in rice (foliar application, diluted 100-fold, control 0.050 mg/kg): 0.180 mg/kg
reduction of arsenic content in rice as compared with the control (foliar application, diluted 100-fold, soil total arsenic 93.6 mg/kg): 19%
